One test concerns P. berghei ANKA strain. Kind of test: treatment: 3x3 mg/kg and 3x1 mg/kg po divided doses in infected mice. It is filed as in vivo, Plasmodium berghei. The conditions noted are these: for Activity (%) p.o. SSV: percent reduction of parasitemia day 4; for activity (percent reduction of parasitemia): 3×1 mg/kg po on days 1, 2, 3 post-infection. The procedure:
Moro NMRI male mice (Fü Albino specific pathogen free) weighing 18±2 g were infected intravenously (i.v.) with 2×10^7 P. berghei ANKA strain-infected erythrocytes from donor mice on day 0 of the experiment. From donor mice with circa 30% parasitemia, heparinized blood was taken and diluted in physiological saline to 10^8 parasitized erythrocytes per ml. An aliquot (0.2 ml) of this suspension was injected i.v. into experimental and control groups of mice. In untreated control mice, parasitemia rose regularly to 40 to 50% by day 3 post-infection and 70 to 80% by day 4 post-infection. The mice died between days 5 and 7 post-infection. Throughout the experiments, mice were kept in groups of three or five animals in Makrolon type II cages in an air-conditioned animal room at 22 to 23° C. A diet with p-aminobenzoic acid (PABA) of 45 mg (NAFAG FUTTER© food N^o 9009 PAB-45) per kg of body weight, and tap water is available ad libitum.
OZ compounds were prepared at an appropriate concentration, either as a solution or a suspension containing SSV (0.5% w/v CMC, 0.5% v/v benzyl alcohol, 0.4% v/v Tween 80, and 0.9% w/v sodium chloride in water). They were administered per os (p.o.) in a total volume of 0.01 ml per gram of mouse. The activity of the compound was determined by a variety of methods outlined in subsequent sections. Survival time was also recorded, and survival to day 30 post-infection was considered to be a cure.
The second experiment consists of administration of divided 3×3 mg/kg and 3×1 mg/kg po doses administered on days 1, 2, and 3 post-infection. On day 4 post-infection, blood smears of all animals were prepared and stained with Giemsa. Parasitemia was determined microscopically, and the difference between the mean value of the control group (taken as 100%) and those of the experimental groups was calculated and expressed as percent reduction. Compounds were administered orally in the SSV vehicle.

For test [1], the system named is ANKA strain of P. berghei. The test can be described thus: single dose STI in vivo screen in infected mice. More on the design: species or system Plasmodium berghei. In outline:
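Groups of 3-5 Moro SPF or NMRI mice infected with the ANKA strain of P. berghei received a single dose of trioxolane on day one post-infection. The compound was given in 3% ethanol and 7% Tween 80 or in SSV (0.5% w/v CMC, 0.5% v/v benzyl alcohol, 0.4% v/v Tween 80, 0.9% w/v sodium chloride in water). Antimalarial activity was scored as percent reduction in parasitemia on day three and as survival time versus untreated controls. Survival to day 30 counted as cure.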

Test [2] has as its system Schistosoma mansoni adult schistosomes (49-day-old). The test can be described thus: effect on adult schistosomes (49-day-old) in mice. Type of test: in vivo. The conditions noted are these: single 400 mg/kg per os. The procedure: Mice were infected with 100 Schistosoma mansoni cercariae […]. Each group was treated per os with OZ compounds at single doses of 200, 400, and 600 mg/kg. […] All groups were killed 4 weeks after treatment and the liver and intestine were removed and separated. The liver and intestine were compressed and alive male and female worms could be seen and counted.

For test [3], the system named is Schistosoma mansoni 21-day-old schistosomules. Kind of test: effect on 21-day-old schistosomules in mice. It is filed as in vivo. The conditions noted are these: single 200 mg/kg per os, female mice. The procedure:
All groups were killed 4 weeks after treatment and the liver and intestine were removed and separated. The liver and intestine were compressed and alive male and female worms could be seen and counted. The effect of the compounds was evaluated by mean total and female worm burden.

For test [4], the system named is P. falciparum NF54 strain (sensitive to standard antimalarials). Kind of test: semiautomated microdilution assay, [3H]-hypoxanthine incorporation, NF54 strain. It is filed as cell-based, Plasmodium falciparum. The note with it: NF54 strain, 72 h incubation. Put shortly:
(§1)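 Intraerythrocytic stages from unsynchronised stock cultures are exposed to test compounds in a semiautomated microdilution format, and fifty percent inhibitory concentrations are then fitted by logit regression.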
(In general: Dilution methods test growth across graded concentrations, often in twofold steps.)

The test system of test [5] is P. falciparum K1 strain (Thailand resistant to chloroquine). The test can be described thus: semiautomated microdilution assay, [3H]-hypoxanthine incorporation, K1 strain. Type of test: cell-based, Plasmodium falciparum. The conditions noted are these: K1 strain, 72 h incubation. In outline: as §1
Setting [6] is: 3 × 1 mg/kg days 1, 2, 3 post-infection.
Setting [7] is: 3 × 3 mg/kg days 1, 2, 3 post-infection.

Consider nine molecules from US6906205B2, “Spiro and dispiro 1,2,4-trioxolane antimalarials” (Medicines for Malaria Venture MMV, priority 2002, dated 2005).

Values after ≈ are worked out from the molar mass of the structure shown.

On to `CCOC(=O)CNCC1CCC2(CC1)OOC1(O2)C2CC3CC(C2)CC1C3.CS(=O)(=O)O` (stereo not shown) [compound 290], for which the “Survival (days) p.o. SSV” value stood at 6.8 days in the test on P. berghei ANKA strain (setting [6]) and 10.6 days in the test with P. berghei ANKA strain (setting [7]). The results for the “Activity (%) p.o. SSV” value in the test with P. berghei ANKA strain (setting [6]) and in the test on P. berghei ANKA strain (setting [7]) were 14% and 93%, respectively.

Take `NS(=O)(=O)c1ccc(NCC2CCC3(CC2)OOC2(O3)C3CC4CC(C3)CC2C4)cc1` (stereo not shown) [compound 298]: in the test on P. berghei ANKA strain (setting [6]), the “Survival (days) p.o. SSV” value is given as 11 days and the “Activity (%) p.o. SSV” value is recorded as 93%. For the same molecule, in the test on P. berghei ANKA strain (setting [7]), the “Survival (days) p.o. SSV” value is reported as 16.4 days and the “Activity (%) p.o. SSV” value worked out at 99.99%.

`NC1(C(=O)NCC2CCC3(CC2)OOC2(O3)C3CC4CC(C3)CC2C4)CCCC1` (stereo not shown) [compound 317]: in the test with P. berghei ANKA strain (setting [6]), the “Survival (days) p.o. SSV” value is listed as 11.4 days and the “Activity (%) p.o. SSV” value came out at 73%. For the same molecule, in the test on P. berghei ANKA strain (setting [7]), the “Survival (days) p.o. SSV” value is listed as 16.8 days and the “Activity (%) p.o. SSV” value stood at 100%.

As for `O=C(CC1CCC2(CC1)OOC1(O2)C2CC3CC(C2)CC1C3)N1CCC(O)CC1` (stereo not shown) [compound 297], in the test with P. berghei ANKA strain (setting [6]), the “Survival (days) p.o. SSV” value was determined as 6.4 days and the “Activity (%) p.o. SSV” value turned out to be 22%. For the same molecule, in the test on P. berghei ANKA strain (setting [7]), the “Survival (days) p.o. SSV” value came to 9.4 days and the “Activity (%) p.o. SSV” value was found to be 89%.

With `NCCC(=O)NC[C@H]1CC[C@]2(CC1)OO[C@]1(O2)C2CC3CC(C2)CC1C3` [OZ336], the “Activity (%) 3 mg/kg SSV po” value in test [1] (percent reduction in parasitemia day 3 post-infection, single 3 mg/kg po in SSV) was found to be 98%. Moreover, in test [1] (percent reduction in parasitemia day 3 post-infection, single 10 mg/kg po in SSV), the “Activity (%) 10 mg/kg SSV po” value came to 99.93%. In addition, the “Survival (days) 10 mg/kg SSV po” value in test [1] (single 10 mg/kg po in SSV) was found to be 9.2 days. For the same molecule, the “activity (percent reduction of parasitemia)” value in the test with P. berghei ANKA strain (SSV) was “greater than 99%”.

For `O=c1ccn(CC2CCC3(CC2)OOC2(O3)C3CC4CC(C3)CC2C4)cc1` (stereo not shown) [compound 302], in the test with P. berghei ANKA strain (setting [6]), the “Survival (days) p.o. SSV” value was found to be 13.4 days and the “Activity (%) p.o. SSV” value is 87%. In the test with P. berghei ANKA strain (setting [7]), the “Survival (days) p.o. SSV” value was found to be 13.4 days and the “Activity (%) p.o. SSV” value amounted to 99.51%.

As to `CS(=O)(=O)O.NCCOc1ccc(C2CCC3(CC2)OOC2(O3)C3CC4CC(C3)CC2C4)cc1` (stereo not shown) [compound 323], in the test on P. berghei ANKA strain (setting [6]), the “Survival (days) p.o. SSV” value is recorded as 14.4 days and the “Activity (%) p.o. SSV” value came out at 66%. In the test on P. berghei ANKA strain (setting [7]), the “Survival (days) p.o. SSV” value was found to be 14.4 days and the “Activity (%) p.o. SSV” value came to 99.95%.

As for `Cc1ccc(S(=O)(=O)O)cc1.NCCNC(=O)CC1CCC2(CC1)OOC1(O2)C2CC3CC(C2)CC1C3` (stereo not shown) [compound 305], in the test on P. berghei ANKA strain (setting [6]), the “Survival (days) p.o. SSV” value was 9.6 days and the “Activity (%) p.o. SSV” value was found to be 87%. For the same molecule, in the test on P. berghei ANKA strain (setting [7]), the “Survival (days) p.o. SSV” value stood at 12.2 days and the “Activity (%) p.o. SSV” value is listed as 99.91%.

As to `O=C(NC[C@H]1CC[C@]2(CC1)OO[C@]1(O2)C2CC3CC(C2)CC1C3)N1CCNCC1` [OZ329], in test [2], the “% reduction of adult worms growth at day 49 after per os application of 400 mg/kg, TWR (%)” value turned out to be 15% and the “adult worms at day 49, per os 400 mg/kg, DEAD WORM (%)” value came out at 6%. For the same molecule, the “activity (percent reduction of parasitemia)” value with P. berghei ANKA strain (SSV) is “greater than 99%”. In the test with P. berghei ANKA strain (3×3 mg/kg po on days 1, 2, 3 post-infection, SSV), the infected mice cured entry is reported as “⅖”. For the same molecule, in test [3], the “% reduction of schistosomule growth at day 21 after per os application of 200 mg/kg, FWR (%)” value turned out to be 90% and the “% reduction of schistosomule growth at day 21 after per os application of 200 mg/kg, TWR (%)” value is 90%. The “IC50 (ng/ml) NF54” value in test [4] worked out at 0.68 ng/mL (≈ 1.68 nM). In test [5], the “IC50 (ng/ml) K1” value is 0.43 ng/mL (≈ 1.06 nM).
